Source: patent US20120021012A1, “NOVEL PHARMACEUTICAL USES FOR NANOPARTICLES” (CENTRE NATIONAL DE LA RECHERCHE SCIENTIFIQUE (C.N.R.S), priority 2008, published 2012)

System: human squamous carcinoma cell line HSC-2
Experiment: MTT cell survival assay, HSC human cancer cell line
Format: cell-based
Settings: paclitaxel applied 72 hours, AT84 and SG lines (FIG. 4)
Method: Cell survival was measured using a colorimetric method with 3-(4,5-dimethylthiazol-2-yl)-2,5-diphenyltetrazolium bromide (MTT). This molecule of yellow colour is reduced by mitochondrial dehydrogenase enzymes to a blue-coloured salt. This allows cell viability to be quantified in response to a treatment.
Cell survival was measured before and after exposure to different concentrations of SiC nanoparticles (0.1-0.5-1 mg/mL in a suspension of RPMI medium 10% FCS).
The cells were cultured in 96-well plates in the presence of SiC nanoparticles for 18 hours after which the media were replaced by standard culture media without any nanoparticles (RPMI medium 10% FCS, Sigma).
Cell viability was measured after different times (24, 48 and 72 hours). […]
Cell viability was measured by the difference in optical density at wavelengths of 450 and 504 nm, using a spectrophotometer connected to a computer system (Power Wave, Bio-Tek Instrument Inc.). The measured absorbency is then directly proportional to the number of living cells. The results are expressed as percentage survival measured under the initial conditions before exposure of the cells to the SiC nanoparticles. […]
Cell survival was measured using a colorimetric method with 3-(4,5-diemthylthiazol-2-yl)-2,5-diphenyltetrazolium bromide (MTT) such as described above in Example 1. […]
Cell viability was measured after 72 hours. […]

## CC(=O)O[C@H]1C(=O)[C@@]2(C)[C@H]([C@H](OC(=O)c3ccccc3)[C@]3(O)C[C@H](OC(=O)[C@H](O)[C@@H](NC(=O)c4ccccc4)c4ccccc4)C(C)=C1C3(C)C)[C@]1(OC(C)=O)CO[C@@H]1C[C@@H]2O [paclitaxel]
  inhibition percentages of cell survival compared with the SiC nanoparticles: of the same order
